The text below walks through data of patent US20240173276A1, “METHODS AND COMPOSITIONS FOR INHIBITING FORMATION OF THE HIV LATENT RESERVOIR” (The University of North Carolina at Chapel Hill, priority 2021, published 2024).

For data set [1], the system named is HIV-dreGFP/Thy1.2 infected primary CD4 T cells. Kind of data set: HDAC selective inhibitor experiments in HIV-dreGFP/Thy1.2 infected CD4 T cells (viral gene expression by flow cytometry). The data set is classed as cell-based, human. Particulars: cultured 14 d in the presence of inhibitor; FIG. 7B. An excerpt: FIGS. 7A-7D show Class I HDAC selective inhibitors reveal druggable dependency on HDAC1 and 2 in latency initiation. A. Schematic overview of HDAC selective inhibitor experiments. […] B. Dose response curve showing the proportion of cells with productive viral gene expression after two weeks of treatment with the indicated inhibitors. Data shown are from one representative cell donor conducted in technical triplicate. C. Time course flow cytometry experiment in HIV-GFP/Thy1.2 infected primary CD4 T cells cultured with the indicated inhibitors. […] D. Mean fluorescent intensity (MFI) of GFP signal in Thy1.2+ cells in data from C. Data shown are representative of three independent experiments.
However, the contribution and roles of individual HDACs are largely unknown. Because of the high homology of HDAC1 and HDAC2 in the enzyme activation site, selective inhibitors for HDAC1 or HDAC2 have not been developed. Thus, the impact of novel small molecules that inhibit both HDAC1 and HDAC2 (HDAC1/2i) or HDAC3 (HDAC3i) on HIV silencing in CD4 T cells was examined. Activated CD4 T cells were infected with HIV-dreGFP/Thy1.2 and cultured for 14 d in the presence of each inhibitor, and viral gene expression was measured by flow cytometry (FIG. 7A).
Background: A flow cytometer gives signals particle by particle.

Data set [2] deals with HIV-GFP infected primary CD4 T cells. Kind of data set: Primary CD4 T cell latency model (HIV-GFP reporter, flow cytometry of GFP- cells). The format is cell-based, human. Particulars: for effect on the formation of latently infected (GFP-) cells: cultured in the presence of inhibitor from 2 dpi for up to 4 weeks, FIG. 1B. An excerpt: Viruses and cell culture: Stocks of HIV-GFP were generated by co-transfection of 293T cells with the pNL4-3-Δ6-dreGFP plasmid (generous gift of Robert Siliciano) and the packaging plasmids PAX2-GagPol) and MD2-VSVG, using Mirus LT1 reagent. At 2 days post transfection virus was harvested from the supernatant and clarified by low speed centrifugation, followed by filtration through a […] filter.
Primary cell latency model: Primary CD4 T cells were isolated from fresh whole blood (purchased from Gulf Coast Regional Blood Center) by Ficoll isolation of peripheral blood mononuclear cells (PBMCs), then magnetic negative selection of CD4 T cells using a CD4 enrichment kit (Stem Cell). Total primary CD4 T cells were activated using anti-CD3/CD28 beads (Thermo Fisher) at a ratio of one bead per cell for 2 days, then infected with HIV-GFP viral supernatant by spinocculation for 2 hrs at 600 g with 4 µg/mL polybrene. The infected cells were then resuspended in fresh RPMI with IL-2 (Peprotech) at 100 U/mL and incubated for two days before actively infected (GFP^+) cells were sorted using a FACSAria flow sorter (Becton Dickson). The purified infected cells (GFP^+) were then maintained at 1-2 million/mL with fresh media and IL-2 added every 2-3 days for 2 weeks. […] Other small molecule inhibitors were purchased from commercial vendors.
HIV latency is regulated by covalent modifications to provirus-associated histones that can promote or repress transcription. These modifications are mediated by a set of host cell enzyme complexes, including histone acetyl transferases (HATs), histone deacetylases (HDACs), histone methyltransferases (HMTs) and histone demethylases (HDMs). To investigate the role of these complexes in the establishment of HIV latency a primary CD4 T cell model of latency was examined. In this model, activated CD4 T cells are infected with a GFP expressing reporter strain of HIV. At 2 dpi, actively infected cells (GFP^+) are sorted to obtain a pure actively infected population, then cultured for 3-4 weeks (FIG. 1A). […] To examine the role of specific histone modifying enzymes in this system, actively infected (GFP^+) cells were isolated at 2 dpi and the cells cultured in the presence of a panel of inhibitors targeting chromatin modifying complexes. […] The infected cells were cultured in the presence of each inhibitor for up to 4 weeks. Each week post infection, the emergence of the latently infected (GFP^−) population was measured by flow cytometry (FIG. 1B).

Data set [3] has as its system HIV-eGFP infected CD4 T cells. Kind of data set: Surface marker phenotype of HIV infected CD4 T cells by flow cytometry. The format is cell-based, human. As to conditions: vorinostat exposure post stimulation, vs DMSO, FIG. 4. Here is the method:
HIV gene expression is regulated by a set of host cell transcription factors that vary in activity as CD4 T cells adopt different activation states and sub-lineage identities post activation. […] To investigate this possibility, flow cytometry was performed to examine the surface marker phenotype of HIV infected cells.

For data set [4] the following is noted: previous clinical studies, vorinostat dosing; cited from earlier work.

In the case of `Nc1cc(F)ccc1NC(=O)/C=C/c1cnn(C/C=C/c2ccccc2)c1` [RGFP966], the “latency prevention (prevention of HIV silencing), dose response” value in data set [1] was “much lower extent”.
Turning to `CCCc1cc(C)[nH]c(=O)c1CNC(=O)c1cc(-c2ccc(N3CCN(C(C)C)CC3)nc2)cc2c1cnn2C(C)C` [UNC1999], in data set [2], the “effect on the formation of latently infected (GFP-) cells” value (from here on “effect on the formation”) is recorded as “modest reduction in the percentage of latently infected cells”.
Regarding `O=C(CCCCCCC(=O)Nc1ccccc1)NO` [vorinostat], in data set [3] (2-3 weeks post infection), the “fraction of cells with central memory phenotype (CD45RA- CCR7+)” value is listed as “increased fraction”. For the same compound, in data set [3], the “expression of CD4 T cell activation marker PD-1” value is “did not lead to increased expression”. Also, in data set [4], the “time of declining concentrations” value is 6 to 24 h and the “time of peak concentrations” value is 2 to 6 h. Besides, the “GFP status of treated cells after removal of vorinostat” value in data set [2] (2 weeks vorinostat, then 2 weeks culture without vorinostat, FIG. 2A) is recorded as “remained mostly GFP^−”. The “percentage of latent (GFP-) cells” value in data set [2] (3 weeks post infection, in the presence of vorinostat, DMSO 70%) came out at 10%. For the same compound, the “reduction of latent (GFP-) population vs vehicle (DMSO)” value in data set [2] (3 weeks post infection, from 70% (DMSO) to 10%) amounted to 7 fold. Besides, the “impact on HIV latency, vorinostat in media 0-14 days post infection” value in data set [2] (add in / wash out, latently infected cells measured at 3 wpi, FIG. 2B) was “significant impact”. Further, in data set [2] (add in / wash out, measured at 3 wpi, FIG. 2B), the “impact on frequency of latently infected cells, addition or removal between 14 dpi and 21 dpi” value is listed as “little impact”. Further, the “emergence of latently infected cells, continuous exposure” value in data set [2] (continuous vorinostat 500 nM, 3 weeks post infection, FIG. 1C) is “potently prevented the emergence of latently infected cells”. For the same compound, the “effect on the formation” value in data set [2] is listed as “potently inhibited the emergence of a latent (GFP^−) population”. In addition, in data set [2] (daily 6 h pulse of vorinostat 500 nM followed by 18 h wash-out, 3 weeks, FIG. 1C), the “establishment of latency, pulsatile exposure” value is listed as “significantly block the establishment of latency in a subset of cells”. For the same compound, the “suppression of HIV latency over a range of concentrations” value in data set [2] (exposure for two weeks to different vorinostat concentrations, FIG. 2A) was “clear dose-dependent fashion”.
With `COc1cc2nc(N3CCCN(C)CC3)nc(NC3CCN(Cc4ccccc4)CC3)c2cc1OC` [BIX1294], in data set [2], the “effect on the formation” value is “modest reduction in the percentage of latently infected cells”.
In the case of `CC(C)N(C[C@H]1O[C@@H](n2cnc3c(N)ncnc32)[C@H](O)[C@@H]1O)[C@H]1C[C@@H](CCc2nc3cc(C(C)(C)C)ccc3[nH]2)C1` [pinometostat], the “effect on the formation” value in data set [2] is “no significant effect”.
For the compound `Nc1ncnc2c1ncn2[C@@H]1O[C@H](C[C@@H](N)CC[C@H](N)C(=O)O)[C@@H](O)[C@H]1O` [Singefungin, sinefungin], in data set [2], the “effect on the formation” value is recorded as “no significant effect”.
